We go through five molecules from ChEMBL document CHEMBL3621100, “Discovery of Novel Class I Histone Deacetylase Inhibitors with Promising in Vitro and in Vivo Antitumor Activities” (J Med Chem, 2015).

SMILES strings stand for the structures.

As a reminder, the GI50 is the concentration that inhibits growth by half. Higher therefore signals less potent growth inhibition. What is called IC50 is the midpoint of a concentration-inhibition curve.

One series has as its system U-937. Briefly: Antiproliferative activity against human U937 cells after 72 hrs by CCK8 assay. It is filed as functional. The note with it: Homo sapiens, U-937, 72 h.
A further series addresses Histone deacetylase 9 (Homo sapiens, UniProt Q9UKV0). Briefly: Inhibition of recombinant human HDAC9 after 60 mins by fluorescence assay.
The next series deals with T1, Histone deacetylase 8 (Homo sapiens, UniProt Q9BY41).
T1 sequence (Q9BY41 whole entry): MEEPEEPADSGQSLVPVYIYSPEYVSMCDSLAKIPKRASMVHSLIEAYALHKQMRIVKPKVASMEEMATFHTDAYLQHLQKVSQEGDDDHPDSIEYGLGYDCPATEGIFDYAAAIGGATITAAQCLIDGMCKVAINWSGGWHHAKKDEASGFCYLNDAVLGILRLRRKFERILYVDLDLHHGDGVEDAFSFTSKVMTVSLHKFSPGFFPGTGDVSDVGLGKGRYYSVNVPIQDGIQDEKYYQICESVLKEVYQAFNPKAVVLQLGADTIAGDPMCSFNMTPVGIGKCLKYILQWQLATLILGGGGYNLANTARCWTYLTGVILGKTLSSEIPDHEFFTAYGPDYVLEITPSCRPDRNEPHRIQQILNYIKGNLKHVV
Briefly: Inhibition of recombinant human HDAC8 after 60 mins by fluorescence assay.

The test system of series [1] is DU-145. Briefly: Antiproliferative activity against human DU145 cells after 72 hrs by CCK8 assay. Format: functional. The note with it: Homo sapiens, DU-145, 72 h.
The subject of series [2] is DU-145. Briefly: Fold increase in DU145 over HLF selectivity (GI50 ratio) relative to FK228 after 72 hrs by CCK8 assay.
Series [3] in a line: Antiproliferative activity against human HLF cells after 72 hrs by CCK8 assay. It is filed as cell-based. Background: Formazan colour is commonly taken as a measure of viable cells.
For a further series, the target named is Histone deacetylase 4 (Homo sapiens, UniProt P56524). Briefly: Inhibition of recombinant human HDAC4 after 60 mins by fluorescence assay.
Histone deacetylase 4, sequence (P56524 whole entry): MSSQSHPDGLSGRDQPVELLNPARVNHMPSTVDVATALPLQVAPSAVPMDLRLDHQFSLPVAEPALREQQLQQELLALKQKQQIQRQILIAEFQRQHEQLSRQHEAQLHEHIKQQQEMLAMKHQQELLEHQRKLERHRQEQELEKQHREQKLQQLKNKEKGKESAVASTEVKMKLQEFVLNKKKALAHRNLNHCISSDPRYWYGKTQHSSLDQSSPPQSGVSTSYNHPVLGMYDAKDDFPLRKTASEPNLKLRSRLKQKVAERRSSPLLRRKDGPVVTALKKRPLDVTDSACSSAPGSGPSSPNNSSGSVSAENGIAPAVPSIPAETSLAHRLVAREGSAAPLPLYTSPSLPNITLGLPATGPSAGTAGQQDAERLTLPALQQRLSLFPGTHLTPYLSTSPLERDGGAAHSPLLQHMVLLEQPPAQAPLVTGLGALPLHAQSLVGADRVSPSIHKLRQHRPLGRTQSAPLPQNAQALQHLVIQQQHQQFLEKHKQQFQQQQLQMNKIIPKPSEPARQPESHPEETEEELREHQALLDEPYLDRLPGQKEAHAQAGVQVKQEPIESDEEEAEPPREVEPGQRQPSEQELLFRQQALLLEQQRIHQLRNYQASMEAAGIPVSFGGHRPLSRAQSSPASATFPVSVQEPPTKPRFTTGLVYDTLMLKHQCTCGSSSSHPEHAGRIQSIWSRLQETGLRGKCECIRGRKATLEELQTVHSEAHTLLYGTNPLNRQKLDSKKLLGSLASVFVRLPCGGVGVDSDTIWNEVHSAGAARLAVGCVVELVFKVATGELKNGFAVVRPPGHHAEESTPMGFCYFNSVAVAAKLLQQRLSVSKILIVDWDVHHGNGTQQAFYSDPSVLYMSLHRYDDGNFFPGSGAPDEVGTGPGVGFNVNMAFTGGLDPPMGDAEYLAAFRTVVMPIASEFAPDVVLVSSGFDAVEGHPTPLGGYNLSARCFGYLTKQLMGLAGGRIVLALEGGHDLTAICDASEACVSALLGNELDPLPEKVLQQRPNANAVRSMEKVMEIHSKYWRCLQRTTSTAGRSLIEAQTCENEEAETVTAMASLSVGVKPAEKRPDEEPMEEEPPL
A further series is described as follows: in vitro. As to conditions: human, DU145 cells and HLF cells.
In the next series the target is Histone deacetylase 5 (Homo sapiens, UniProt Q9UQL6). Briefly: Inhibition of recombinant human HDAC5 after 60 mins by fluorescence assay.
Histone deacetylase 5, sequence (Q9UQL6 whole entry): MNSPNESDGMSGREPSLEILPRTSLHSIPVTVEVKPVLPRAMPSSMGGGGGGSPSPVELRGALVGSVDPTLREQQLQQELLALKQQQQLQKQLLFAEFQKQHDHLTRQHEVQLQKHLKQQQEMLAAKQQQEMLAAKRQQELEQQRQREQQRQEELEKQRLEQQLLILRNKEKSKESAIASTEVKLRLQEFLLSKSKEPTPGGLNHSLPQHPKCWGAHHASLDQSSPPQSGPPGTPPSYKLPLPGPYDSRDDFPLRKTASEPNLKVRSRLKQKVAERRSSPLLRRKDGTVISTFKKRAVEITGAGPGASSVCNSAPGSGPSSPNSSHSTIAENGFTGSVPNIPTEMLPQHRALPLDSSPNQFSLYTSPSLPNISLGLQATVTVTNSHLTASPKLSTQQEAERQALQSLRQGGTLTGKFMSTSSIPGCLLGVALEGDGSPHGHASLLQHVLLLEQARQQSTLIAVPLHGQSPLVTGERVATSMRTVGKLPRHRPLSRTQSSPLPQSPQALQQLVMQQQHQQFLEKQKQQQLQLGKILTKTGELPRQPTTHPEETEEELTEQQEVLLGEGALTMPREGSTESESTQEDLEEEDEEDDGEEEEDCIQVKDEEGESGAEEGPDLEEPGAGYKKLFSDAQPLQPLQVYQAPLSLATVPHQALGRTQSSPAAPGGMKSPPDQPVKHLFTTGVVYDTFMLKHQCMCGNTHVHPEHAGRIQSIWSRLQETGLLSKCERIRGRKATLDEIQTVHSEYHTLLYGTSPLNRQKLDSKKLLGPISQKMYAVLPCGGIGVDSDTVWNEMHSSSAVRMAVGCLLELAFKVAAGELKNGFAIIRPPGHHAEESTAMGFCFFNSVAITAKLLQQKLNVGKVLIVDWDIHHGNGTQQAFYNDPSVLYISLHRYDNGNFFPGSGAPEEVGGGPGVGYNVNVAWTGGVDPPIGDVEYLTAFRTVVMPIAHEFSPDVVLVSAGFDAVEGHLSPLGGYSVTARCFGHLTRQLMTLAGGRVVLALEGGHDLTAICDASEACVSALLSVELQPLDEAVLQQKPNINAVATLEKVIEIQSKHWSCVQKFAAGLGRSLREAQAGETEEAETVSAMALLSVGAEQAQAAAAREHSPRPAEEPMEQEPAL
A further series deals with T2, Histone deacetylase 11 (Homo sapiens, UniProt Q96DB2).
T2 sequence (Q96DB2 whole entry): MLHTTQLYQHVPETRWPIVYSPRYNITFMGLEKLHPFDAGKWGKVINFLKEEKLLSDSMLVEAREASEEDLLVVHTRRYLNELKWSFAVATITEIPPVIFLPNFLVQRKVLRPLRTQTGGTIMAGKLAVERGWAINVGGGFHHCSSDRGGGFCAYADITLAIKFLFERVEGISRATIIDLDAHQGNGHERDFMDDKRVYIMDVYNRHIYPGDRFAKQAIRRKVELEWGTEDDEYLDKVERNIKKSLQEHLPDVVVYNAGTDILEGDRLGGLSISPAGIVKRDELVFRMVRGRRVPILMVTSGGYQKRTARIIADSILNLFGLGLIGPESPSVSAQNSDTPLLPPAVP
Briefly: Inhibition of recombinant human HDAC11 after 60 mins by fluorescence assay.

For a further series, the target named is Histone deacetylase 3 (Homo sapiens, UniProt O15379). Briefly: Inhibition of recombinant human HDAC3 after 60 mins by fluorescence assay.
Histone deacetylase 3, sequence (O15379 whole entry): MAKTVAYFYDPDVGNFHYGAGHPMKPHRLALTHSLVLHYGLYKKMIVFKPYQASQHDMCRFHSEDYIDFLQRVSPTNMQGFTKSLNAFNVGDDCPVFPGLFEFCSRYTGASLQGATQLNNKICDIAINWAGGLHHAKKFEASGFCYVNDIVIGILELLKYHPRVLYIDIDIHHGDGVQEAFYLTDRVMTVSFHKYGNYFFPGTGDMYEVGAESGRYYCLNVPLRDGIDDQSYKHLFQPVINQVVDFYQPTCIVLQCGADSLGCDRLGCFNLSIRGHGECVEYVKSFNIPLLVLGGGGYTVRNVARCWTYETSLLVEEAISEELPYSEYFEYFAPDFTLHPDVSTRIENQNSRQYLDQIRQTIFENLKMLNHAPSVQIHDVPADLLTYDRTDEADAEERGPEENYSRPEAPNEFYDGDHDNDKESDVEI
In series [4] the test system is DU-145. Briefly: Fold increase in DU145 over HLF selectivity (GI50 ratio) relative to largazole after 72 hrs by CCK8 assay.
The test system of series [5] is Mus musculus. Briefly: Toxicity in human DU145 cells xenografted BALB/c mouse assessed as mortality at 20 to 80 mg/kg, iv administered for 5 times a week for after 4 weeks. It is filed as organism-based, DU-145. As to conditions: in vivo, 672 h. For orientation: Xenograft models place foreign cells or tissue in a host animal.
Series [6] can be described thus: Aqueous solubility of the compound. It is filed as physicochemical. The note with it: buffer.
Series [7] deals with DU-145. Briefly: Antitumor activity against human DU145 cells xenografted in BALB/c mouse assessed as delay in tumor growth at 20 mg/kg, iv administered for 5 times a week for after 4 weeks. Format: functional.
For series [8], the system named is DU-145. Briefly: Antitumor activity against human DU145 cells xenografted in BALB/c mouse assessed as tumor growth inhibition at 20 mg/kg, iv administered for 5 times a week for after 4 weeks. Format: functional. The note with it: DU-145, iv, 672 h, read-out: GI.
In series [9] the test system is DU-145. Briefly: Antitumor activity against human DU145 cells xenografted in BALB/c mouse assessed as delay in tumor growth at 80 mg/kg, iv administered for 5 times a week for after 4 weeks. Format: functional.
For series [10], the system named is DU-145. Briefly: Antitumor activity against human DU145 cells xenografted in BALB/c mouse assessed as delay in tumor growth at 40 mg/kg, iv administered for 5 times a week for after 4 weeks. It is filed as functional.
In series [11] the test system is DU-145. Briefly: Antitumor activity against human DU145 cells xenografted in iv dosed BALB/c mouse assessed as delay in tumor growth after 4 weeks. Format: functional, organism-based.
The test system of series [12] is Mus musculus. Briefly: Toxicity in human DU145 cells xenografted BALB/c mouse assessed as change in body weight at 20 to 80 mg/kg, iv administered for 5 times a week for after 4 weeks. It is filed as organism-based, DU-145. The note with it: in vivo, 672 h.

Histone deacetylase 9, sequence (Q9UKV0 whole entry): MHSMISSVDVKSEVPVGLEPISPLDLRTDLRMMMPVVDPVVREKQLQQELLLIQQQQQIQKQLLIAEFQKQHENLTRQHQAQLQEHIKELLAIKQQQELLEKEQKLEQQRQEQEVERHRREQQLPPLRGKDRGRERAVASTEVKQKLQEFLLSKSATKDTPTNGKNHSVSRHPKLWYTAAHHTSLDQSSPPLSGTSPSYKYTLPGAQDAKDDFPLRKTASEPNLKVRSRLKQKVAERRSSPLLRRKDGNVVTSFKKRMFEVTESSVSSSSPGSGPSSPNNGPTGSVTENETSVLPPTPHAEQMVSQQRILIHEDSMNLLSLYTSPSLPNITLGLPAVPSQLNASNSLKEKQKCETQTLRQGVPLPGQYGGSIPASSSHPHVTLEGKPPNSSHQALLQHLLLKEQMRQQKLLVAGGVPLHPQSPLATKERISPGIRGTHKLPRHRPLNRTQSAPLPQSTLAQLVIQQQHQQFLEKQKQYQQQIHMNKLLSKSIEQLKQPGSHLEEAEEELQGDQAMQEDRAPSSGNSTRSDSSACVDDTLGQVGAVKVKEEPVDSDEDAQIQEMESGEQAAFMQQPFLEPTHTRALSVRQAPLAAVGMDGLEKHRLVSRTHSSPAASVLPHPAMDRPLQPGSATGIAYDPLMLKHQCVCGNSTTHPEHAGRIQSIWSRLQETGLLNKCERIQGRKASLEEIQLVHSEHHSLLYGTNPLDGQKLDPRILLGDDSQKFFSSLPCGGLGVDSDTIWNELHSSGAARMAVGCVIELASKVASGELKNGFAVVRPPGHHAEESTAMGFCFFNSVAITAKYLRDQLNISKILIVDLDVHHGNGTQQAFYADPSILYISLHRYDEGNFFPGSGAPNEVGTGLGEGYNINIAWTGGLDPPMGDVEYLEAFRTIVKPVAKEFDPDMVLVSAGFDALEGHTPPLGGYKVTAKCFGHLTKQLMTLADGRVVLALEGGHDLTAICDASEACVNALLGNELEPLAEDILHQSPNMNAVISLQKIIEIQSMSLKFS
Description for in vitro: Selectivity ratio of GI50 for human DU145 cells to GI50 for human HLF cells

For `C/C=C1\NC(=O)c2csc(n2)[C@@H](C(C)C)NC(=O)C[C@@H](/C=C/CCSC(=O)CCCCCCC)OC(=O)[C@H](C(C)C)NC1=O`, the values for the GI50 in the series on U-937 and in the series on DU-145 [1] were 0.0317 µM and 0.0205 µM, respectively. For the same molecule, the IC50 at Histone deacetylase 9 is more than 10 µM; on Histone deacetylase 8 it was more than 10 µM; on Histone deacetylase 4, more than 10 µM; on Histone deacetylase 5, more than 10 µM; on Histone deacetylase 11 it was more than 10 µM; on Histone deacetylase 3, 3.15 µM. Further, the Ratio in the series on DU-145 [2] amounted to 8. In addition, the GI50 at 72 h in series [3] was 0.71 µM. Further, the selectivity ratio in the series “in vitro” was 0.029.
For `C/C=C1\NC(=O)c2csc(n2)CNC(=O)C[C@@H](/C=C/CCSC(=O)CCCCCCC)OC(=O)[C@H](C(C)C)NC1=O`, the GI50 stood at 0.00659 µM with U-937 and 0.00699 µM with DU-145 [1]. Also, the IC50 was more than 10 µM at Histone deacetylase 9; more than 10 µM on Histone deacetylase 8; more than 10 µM at Histone deacetylase 4; more than 10 µM on Histone deacetylase 5; more than 10 µM on Histone deacetylase 11; 1.68 µM at Histone deacetylase 3. For the same molecule, the Ratio stood at 22 in the series on DU-145 [2] and 20 in the series with DU-145 [4]. The molecule further displayed a GI50 at 72 h in [3] of 0.312 µM. Besides, the selectivity ratio in “in vitro” stood at 0.022.
For `C/C=C1\NC(=O)c2csc(n2)[C@@H](C(C)C)NC(=O)C[C@@H](/C=C/CCS)OC(=O)[C@H](C(C)C)NC1=O`, the IC50 at Histone deacetylase 9 was more than 10 µM; at Histone deacetylase 8, 2.55 µM; on Histone deacetylase 4, more than 10 µM; at Histone deacetylase 5 it was more than 10 µM; on Histone deacetylase 11, more than 10 µM; on Histone deacetylase 3 it was 0.00977 µM.
For `C/C=C1\NC(=O)c2csc(n2)CNC(=O)C[C@@H](/C=C/CCS)OC(=O)[C@H](C(C)C)NC1=O`, the half-inhibitory concentration (IC50) is more than 10 µM at Histone deacetylase 9; 3.55 µM on Histone deacetylase 8; more than 10 µM on Histone deacetylase 4; more than 10 µM on Histone deacetylase 5; more than 10 µM at Histone deacetylase 11; 0.00767 µM on Histone deacetylase 3.
As for `C/C=C1\NC(=O)c2csc(n2)CNC(=O)C[C@@H](/C=C/CCSC(C)=O)OC(=O)[C@H](C(C)C)NC1=O`, the GI50 was determined as 0.0105 µM with U-937 and 0.011 µM with DU-145 [1]. The IC50 at Histone deacetylase 9 is more than 10 µM; at Histone deacetylase 8, more than 10 µM; at Histone deacetylase 4, more than 10 µM; at Histone deacetylase 5 it was more than 10 µM; at Histone deacetylase 11, more than 10 µM; on Histone deacetylase 3, 0.073 µM. Besides, the Activity result in the series with Mus musculus [5] is “Non-toxic”; in the series on DU-145 [7], 51.7%; with DU-145 [9], 81.2%; in the series with DU-145 [10], 75.2%; with DU-145 [11], “Dose-dependent effect”; in the series with Mus musculus [12], “Non-toxic”. In series [6], the solubility result is “soluble”. The inhibition in vivo at 20 mg/kg with DU-145 [8] worked out at 51.7%. For the same molecule, the 50% growth inhibitory concentration (GI50) at 72 h in [3] stood at 0.321 µM. In “in vitro”, the selectivity ratio came to 0.034.
